# Measurements reported in PubChem BioAssay (NCI).
#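 Assay format: 96-well plates, 48-hour exposure. At the TGI there is no net growth.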
# Key:
# Test in all cases: NCI-60 cell line screen, 48 h
# OVCAR-4 ovarian = tested on: OVCAR-4 ovarian
# SF-295 CNS = tested on: SF-295 CNS
# HCT-15 colon = tested on: HCT-15 colon
# RXF-631 renal = tested on: RXF-631 renal
# OVCAR-3 ovarian = tested on: OVCAR-3 ovarian
# SK-MEL-2 melanoma = tested on: SK-MEL-2 melanoma
# UACC-62 melanoma = tested on: UACC-62 melanoma
# K-562 leukemia = tested on: K-562 leukemia
# HOP-62 NSCLC = tested on: HOP-62 NSCLC
# SN12C renal = tested on: SN12C renal
# HCT-116 colon = tested on: HCT-116 colon
# M14 melanoma = tested on: M14 melanoma
# NCI-H522 lung = tested on: NCI-H522 lung
# CCRF-CEM leukemia = tested on: CCRF-CEM leukemia
# SF-268 CNS = tested on: SF-268 CNS
# SR leukemia = tested on: SR leukemia
# HT29 colon = tested on: HT29 colon
# OVCAR-8 ovarian = tested on: OVCAR-8 ovarian
# LXFL 529 NSCLC = tested on: LXFL 529 NSCLC
# NCI-H226 lung = tested on: NCI-H226 lung
# ACHN renal = tested on: ACHN renal
# NCI-H460 lung = tested on: NCI-H460 lung
# EKVX NSCLC = tested on: EKVX NSCLC
# SF-539 CNS = tested on: SF-539 CNS
# TK-10 renal = tested on: TK-10 renal
# SNB-78 CNS = tested on: SNB-78 CNS
# UACC-257 melanoma = tested on: UACC-257 melanoma
# HL-60(TB) leukemia = tested on: HL-60(TB) leukemia
# SNB-19 CNS = tested on: SNB-19 CNS
# CAKI-1 renal = tested on: CAKI-1 renal
# RXF 393 renal = tested on: RXF 393 renal
# M19-MEL melanoma = tested on: M19-MEL melanoma
# KM12 colon = tested on: KM12 colon
# MOLT-4 leukemia = tested on: MOLT-4 leukemia
# SK-OV-3 ovarian = tested on: SK-OV-3 ovarian
# A549 NSCLC = tested on: A549 NSCLC
# UO-31 renal = tested on: UO-31 renal
# SK-MEL-5 melanoma = tested on: SK-MEL-5 melanoma
# SK-MEL-28 melanoma = tested on: SK-MEL-28 melanoma
# U251 CNS = tested on: U251 CNS
# NCI-H23 lung = tested on: NCI-H23 lung
# XF 498 CNS = tested on: XF 498 CNS
# SW-620 colon = tested on: SW-620 colon
# A498 renal = tested on: A498 renal
# 786-0 renal = tested on: 786-0 renal
# DMS 273 small cell lung = tested on: DMS 273 small cell lung
# OVCAR-5 ovarian = tested on: OVCAR-5 ovarian
# MCF7 breast = tested on: MCF7 breast
# RPMI-8226 leukemia = tested on: RPMI-8226 leukemia
# LOX IMVI melanoma = tested on: LOX IMVI melanoma
# SNB-75 CNS = tested on: SNB-75 CNS
# BT-549 breast = tested on: BT-549 breast
# MDA-MB-435 = tested on: MDA-MB-435
# COLO 205 colon = tested on: COLO 205 colon
# HOP-92 NSCLC = tested on: HOP-92 NSCLC
# MDA-N = tested on: MDA-N
# KM20L2 colon = tested on: KM20L2 colon
# DLD-1 colon = tested on: DLD-1 colon
# DU-145 prostate = tested on: DU-145 prostate
# HS 578T breast = tested on: HS 578T breast
# MDA-MB-231 breast = tested on: MDA-MB-231 breast
# DMS 114 small cell lung = tested on: DMS 114 small cell lung
# MALME-3M melanoma = tested on: MALME-3M melanoma
# IGROV1 ovarian = tested on: IGROV1 ovarian
# HOP-18 NSCLC = tested on: HOP-18 NSCLC
# HCC-2998 colon = tested on: HCC-2998 colon
# PC-3 prostate = tested on: PC-3 prostate
# T-47D breast = tested on: T-47D breast
structure (smiles),measurement,setting,value
O=C1c2ccccc2C(=O)N1CC#CCO,TGI,OVCAR-4 ovarian,> 100 µM
same,TGI,SF-295 CNS,> 100 µM
same,TGI,HCT-15 colon,> 100 µM
same,TGI,RXF-631 renal,> 100 µM
same,TGI,OVCAR-3 ovarian,> 100 µM
same,TGI,SK-MEL-2 melanoma,> 100 µM
same,TGI,UACC-62 melanoma,> 100 µM
same,TGI,K-562 leukemia,> 100 µM
same,TGI,HOP-62 NSCLC,> 100 µM
same,TGI,SN12C renal,> 100 µM
same,TGI,HCT-116 colon,> 100 µM
same,TGI,M14 melanoma,> 100 µM
same,TGI,NCI-H522 lung,> 100 µM
same,TGI,CCRF-CEM leukemia,> 100 µM
same,TGI,SF-268 CNS,> 100 µM
same,TGI,SR leukemia,> 100 µM
same,TGI,HT29 colon,> 100 µM
same,TGI,OVCAR-8 ovarian,> 100 µM
same,TGI,LXFL 529 NSCLC,> 100 µM
same,TGI,NCI-H226 lung,> 100 µM
same,TGI,ACHN renal,> 100 µM
same,TGI,NCI-H460 lung,> 100 µM
same,TGI,EKVX NSCLC,> 100 µM
same,TGI,SF-539 CNS,> 100 µM
same,TGI,TK-10 renal,> 100 µM
same,TGI,SNB-78 CNS,> 100 µM
same,TGI,UACC-257 melanoma,> 100 µM
same,TGI,HL-60(TB) leukemia,> 100 µM
same,TGI,SNB-19 CNS,> 100 µM
same,TGI,CAKI-1 renal,> 100 µM
same,TGI,RXF 393 renal,> 100 µM
same,TGI,M19-MEL melanoma,> 100 µM
same,TGI,KM12 colon,> 100 µM
same,TGI,MOLT-4 leukemia,> 100 µM
same,TGI,SK-OV-3 ovarian,> 100 µM
same,TGI,A549 NSCLC,> 100 µM
same,TGI,UO-31 renal,> 100 µM
same,TGI,SK-MEL-5 melanoma,> 100 µM
same,TGI,SK-MEL-28 melanoma,> 100 µM
same,TGI,U251 CNS,> 100 µM
same,TGI,NCI-H23 lung,> 100 µM
same,TGI,XF 498 CNS,> 100 µM
same,TGI,SW-620 colon,> 100 µM
same,TGI,A498 renal,> 100 µM
same,TGI,786-0 renal,> 100 µM
same,TGI,DMS 273 small cell lung,> 100 µM
same,TGI,OVCAR-5 ovarian,> 100 µM
Cc1cc(N(CCC#N)S(=O)(=O)c2ccccc2)ccc1C=Nc1ccc(C(=O)O)cc1,TGI,MCF7 breast,> 100 µM
same,TGI,RPMI-8226 leukemia,> 21.2 µM
same,TGI,LOX IMVI melanoma,25.5 µM
same,TGI,SNB-75 CNS,29.1 µM
same,TGI,OVCAR-4 ovarian,18.6 µM
same,TGI,SF-295 CNS,44.8 µM
same,TGI,HCT-15 colon,13.7 µM
same,TGI,BT-549 breast,> 100 µM
same,TGI,MDA-MB-435,> 100 µM
same,TGI,OVCAR-3 ovarian,21.5 µM
same,TGI,SK-MEL-2 melanoma,22.3 µM
same,TGI,COLO 205 colon,10.1 µM
same,TGI,UACC-62 melanoma,37.1 µM
same,TGI,K-562 leukemia,17.9 µM
same,TGI,HOP-92 NSCLC,> 100 µM
same,TGI,HOP-62 NSCLC,46 µM
same,TGI,SN12C renal,16.8 µM
same,TGI,HCT-116 colon,14.7 µM
same,TGI,M14 melanoma,21.8 µM
same,TGI,NCI-H522 lung,9.13 µM
same,TGI,CCRF-CEM leukemia,> 26.5 µM
same,TGI,MDA-N,> 100 µM
same,TGI,SF-268 CNS,> 60.7 µM
same,TGI,SR leukemia,> 40.9 µM
same,TGI,KM20L2 colon,28.6 µM
same,TGI,HT29 colon,45.6 µM
same,TGI,OVCAR-8 ovarian,15.5 µM
same,TGI,DLD-1 colon,4.11 µM
same,TGI,LXFL 529 NSCLC,3.52 µM
same,TGI,NCI-H226 lung,40.7 µM
same,TGI,ACHN renal,> 33.2 µM
same,TGI,NCI-H460 lung,29.9 µM
same,TGI,EKVX NSCLC,35.8 µM
same,TGI,SF-539 CNS,30.7 µM
same,TGI,TK-10 renal,17.9 µM
same,TGI,SNB-78 CNS,34.7 µM
same,TGI,UACC-257 melanoma,30 µM
same,TGI,HL-60(TB) leukemia,> 21.3 µM
same,TGI,DU-145 prostate,> 100 µM
same,TGI,SNB-19 CNS,44.8 µM
same,TGI,CAKI-1 renal,5.73 µM
same,TGI,HS 578T breast,> 100 µM
same,TGI,MDA-MB-231 breast,> 100 µM
same,TGI,DMS 114 small cell lung,10.1 µM
same,TGI,RXF 393 renal,6.72 µM
same,TGI,M19-MEL melanoma,7.32 µM
same,TGI,KM12 colon,42.6 µM
same,TGI,MALME-3M melanoma,12 µM
same,TGI,IGROV1 ovarian,46.5 µM
same,TGI,MOLT-4 leukemia,13.8 µM
same,TGI,SK-OV-3 ovarian,48.9 µM
same,TGI,A549 NSCLC,52.5 µM
same,TGI,UO-31 renal,21.8 µM
same,TGI,SK-MEL-5 melanoma,24.3 µM
same,TGI,SK-MEL-28 melanoma,28.3 µM
same,TGI,HOP-18 NSCLC,16.6 µM
same,TGI,U251 CNS,38.2 µM
same,TGI,HCC-2998 colon,27.5 µM
same,TGI,NCI-H23 lung,33.9 µM
same,TGI,XF 498 CNS,22.5 µM
same,TGI,PC-3 prostate,> 100 µM
same,TGI,SW-620 colon,15 µM
same,TGI,A498 renal,44.5 µM
same,TGI,786-0 renal,16.1 µM
same,TGI,T-47D breast,> 100 µM
same,TGI,DMS 273 small cell lung,17.5 µM
same,TGI,OVCAR-5 ovarian,38.7 µM
